The target in experiment [1] is T1, MEK1 (Recombinant Human Protein) (Homo sapiens, UniProt Q02750).
T1 construct: purchased Invitrogen PV3093
Put plainly: MEK1 kinase inhibition assay (Z'-LYTE Kinase Assay Kit-Ser/Thr 03 Peptide). The format is biochemical. The conditions noted are these: 4 hours at 37° C, read-out: IC50 for inhibiting MEK kinase (MEK1). As for the experimental part:
MEK1 kinase activity was tested in vitro by the following method.
MEK kinase used in the assay: MEK1 (Recombinant Human Protein, Invitrogen, Catalog No. PV3093).
Kit used in the assay: Z′-LYTE™ Kinase Assay Kit-Ser/Thr 03 Peptide (Invitrogen, Catalog No. PV3176).
The following in vitro assay was used to determine the activity of the compounds of the present invention for inhibiting the […] MEK kinase. The test compound was dissolved in dimethyl sulfoxide to the desired concentration. 1× Buffer A (Invitrogen, Catalog No. PV3189) was prepared, ATP was diluted with 1× Buffer A to obtain 400 μM ATP solution, appropriate amounts of Z′-LYTE™ Ser/Thr 03 Peptide (Invitrogen, Catalog No. PV3200), MEK kinase (MEK1) Enzymes and 1× Buffer A were mixed, and appropriate amounts of Z′-LYTE™ Ser/Thr 03 phosphoPeptide substrate (Invitrogen, Catalog No. PV3215) and 1× Buffer A were formulated into a mixture to be tested. The 4% DMSO solution of the test compound was prepared from 1× buffer and DMSO solution of the test compound. 2.5 μL DMSO solution of the test compound was added to a reaction well, and then 1× Buffer A, 2.5 μL of 400 μM ATP solution, 5 μL of enzyme and substrate mixture were added to become a 10 μL of reaction system. The reaction system was incubated for 4 hours at 37° C., and a mixture was prepared according to Reagent A:Buffer B=1:1024. 5 μL of a mixture of Reagent A (Invitrogen, Catalog No. PV3295) and Buffer B (Invitrogen, Catalog No. P3127) was added to a reaction well, the reaction system was incubated for 60 minutes at 25° C. The fluorescence was read by a NovoStar ELISA with excitation wavelength: 400 nm, and emission wavelength: 445 nm and 520 nm.
The activity of the compounds of the present invention: The above assay was used to determine the biochemical activity of the compounds of the present invention for inhibiting MEK kinase (MEK1).

The subject of experiment [2] is Colo205 cell. Briefly: Proliferation inhibition on Colo205 (CCK8). The conditions noted are these: Homo sapiens, COLO 205, Colo205, 72 hours. It is filed as cell-based. The source says: Cell line used in the assay: Colo205 (Cell Bank of the Chinese Academy of Sciences, Catalog No. TCHu102).
The following in vitro cell assay is to determine the activity of the compounds of the present invention for inhibiting the proliferation of human colon cancer cell, and the activity is expressed as IC50. General programs of this kind of assay were as follows: First, the cell line to be tested (purchased from Cell Bank of the Chinese Academy of Sciences) was inoculated in a 96-well culture plate with a suitable cell concentration of 4000 cells/mL medium, and was cultured in a carbon dioxide incubator at 37° C., then grown overnight. The medium was replaced by new medium added with a series of concentrations (10000 nM, 1000 nM, 100 nM, 10 nM, 1 nM, 0.1 nM) of the test compound solutions. The plates were placed back in the incubator, and continuously cultured for 72 hours. After 72 hours, CCK8 (Cell Counting Kit-8, Catalog No.: CK04, purchased from colleagues chemical company) method was used to determine the proliferation inhibition activity of the test compounds. IC50 values were calculated from the inhibition data of the test compounds at a series of different concentrations.
The above assay was used to determine the biochemical activity of the compounds of the present invention.

T1 sequence (Q02750 whole entry): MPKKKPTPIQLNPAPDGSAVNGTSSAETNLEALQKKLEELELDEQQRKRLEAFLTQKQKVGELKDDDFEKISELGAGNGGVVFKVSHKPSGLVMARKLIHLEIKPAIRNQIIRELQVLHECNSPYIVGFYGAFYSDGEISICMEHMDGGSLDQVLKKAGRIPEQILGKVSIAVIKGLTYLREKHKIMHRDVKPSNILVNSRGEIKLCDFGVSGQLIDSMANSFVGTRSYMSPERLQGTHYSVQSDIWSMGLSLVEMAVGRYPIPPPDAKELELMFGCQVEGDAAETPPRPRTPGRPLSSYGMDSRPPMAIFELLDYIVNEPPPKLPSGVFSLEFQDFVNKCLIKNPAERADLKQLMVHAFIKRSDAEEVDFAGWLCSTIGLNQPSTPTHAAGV

Broadly, the IC50 is the concentration at which inhibition is half-maximal. For `Cc1c(Oc2cc(=O)n(C)c(Nc3ccc(I)cc3F)c2C(N)=O)cccc1C(=O)NC1CC1` [Example 11, 4-(3-(cyclopropylcarbamoyl)-2-methylphenoxy)-2-((2-fluoro-4-iodophenyl)amino)-1-methyl-6-oxo-1,6-dihydropyridine-3-carboxamide], the IC50 came to 5.5 nM in experiment [1] and 4.3 nM in experiment [2].
In the same order, the values of `Cc1cccc(C)c1Oc1cc(=O)n(C)c(Nc2ccc(I)cc2F)c1C(N)=O` [Example 21, 4-(2,6-dimethylphenoxy)-2-((2-fluoro-4-iodophenyl)amino)-1-methyl-6-oxo-1,6-dihydropyridine-3-carboxamide] are 6.3 nM and 10.2 nM.
For the compound `Cc1c(O)cccc1Oc1cc(=O)n(C)c(Nc2ccc(I)cc2F)c1C(N)=O` [Example 24, 4-(3-hydroxy-2-methylphenoxy)-2-((2-fluoro-4-iodophenyl)amino)-1-methyl-6-oxo-1,6-dihydropyridine-3-carboxamide], the half-maximal inhibitory concentration (IC50) was found to be 4 nM in experiment [1] and 3.1 nM in experiment [2].
Take `Cc1ccc(Oc2cc(=O)n(C)c(Nc3ccc(I)cc3F)c2C(N)=O)c(F)c1` [Example 17, 4-(2-fluoro-4-methylphenoxy)-2-((2-fluoro-4-iodophenyl)amino)-1-methyl-6-oxo-1,6-dihydropyridine-3-carboxamide]: the figures for the IC50 in experiment [1] and in experiment [2] were 8.4 nM and 2 nM, respectively.
Turning to `Cc1c(Oc2cc(=O)n(C)c(Nc3ccc(I)cc3F)c2C(N)=O)cccc1O[C@H]1CCOC1` [Example 9, (S)-2-((2-fluoro-4-iodophenyl)amino)-1-methyl-4-(2-methyl-3-((tetrahydrofuran-3-yl)oxy)phenoxy)-6-oxo-1,6-dihydropyridine-3-carboxamide], the results for the IC50 in experiment [1] and in experiment [2] were 6 nM and 0.3 nM, respectively.
The matching figures for `Cc1cccc(Oc2cc(=O)n(C)c(Nc3ccc(I)cc3F)c2C(N)=O)c1F` [Example 19, 4-(2-fluoro-3-methylphenoxy)-2-((2-fluoro-4-iodophenyl)amino)-1-methyl-6-oxo-1,6-dihydropyridine-3-carboxamide]: 5.8 nM and 0.8 nM.
With `Cc1c(F)cccc1Oc1cc(=O)n(C)c(Nc2ccc(I)cc2F)c1C(=O)NC[C@@H](O)CO` [Example 27, (R)-N-(2,3-dihydroxypropyl)-4-(3-fluoro-2-methylphenoxy)-2-((2-fluoro-4-iodophenyl)amino)-1-methyl-6-oxo-1,6-dihydropyridine-3-carboxamide], the IC50 in experiment [1] turned out to be 28.3 nM.
Take `Cc1ccc(Oc2cc(=O)n(C)c(Nc3ccc(I)cc3F)c2C(N)=O)c(C)c1` [Example 20, 4-(2,4-dimethylphenoxy)-2-((2-fluoro-4-iodophenyl)amino)-1-methyl-6-oxo-1,6-dihydropyridine-3-carboxamide]: the IC50 was 2.9 nM in experiment [1] and 1.7 nM in experiment [2].
In the case of `CCS(=O)(=O)Nc1cccc(Oc2c(C(N)=O)c(Nc3ccc(I)cc3F)n(C)c(=O)c2F)c1C` [Example 6, 4-(3-(ethylsulfonamido)-2-methylphenoxy)-2-((2-fluoro-4-iodophenyl)amino)-1-methyl-5-fluoro-6-oxo-1,6-dihydropyridine-3-carboxamide], in experiment [1], the IC50 is 3.4 nM.
For `CNC(=O)c1cccc(Oc2cc(=O)n(C)c(Nc3ccc(I)cc3F)c2C(N)=O)c1C` [Example 10, 4-(2-methyl-3-(methylcarbamoyl)phenoxy)-2-((2-fluoro-4-iodophenyl)amino)-1-methyl-6-oxo-1,6-dihydropyridine-3-carboxamide], the half-maximal inhibitory concentration (IC50) in experiment [1] turned out to be 6.3 nM; in experiment [2] it was 4.3 nM.
As to `CCC(=O)Nc1cccc(Oc2cc(=O)n(C)c(Nc3ccc(I)cc3F)c2C(N)=O)c1C` [Example 8, 4-(3-propionamido-2-methylphenoxy)-2-((2-fluoro-4-iodophenyl)amino)-1-methyl-6-oxo-1,6-dihydropyridine-3-carboxamide], the IC50 in experiment [1] was determined as 3.2 nM; in experiment [2] it was 0.5 nM.
Turning to `Cc1c(F)cccc1Oc1c(C(N)=O)c(Nc2ccc(I)cc2F)n(C)c(=O)c1F` [Example 26, 5-fluoro-4-(3-fluoro-2-methylphenoxy)-2-((2-fluoro-4-iodophenyl)amino)-1-methyl-6-oxo-1,6-dihydropyridine-3-carboxamide], the IC50 in experiment [1] was 3.9 nM.
As to `CCS(=O)(=O)Nc1cccc(Oc2cc(=O)n(C)c(Nc3ccc(I)cc3F)c2C(=O)NC)c1C` [Example 2, N,1-dimethyl-4-(3-(ethylsulfonamido)-2-methylphenoxy)-2-((2-fluoro-4-iodophenyl)amino)-6-oxo-1,6-dihydropyridine-3-carboxamide], the IC50 in experiment [1] worked out at 19 nM; in experiment [2], 4.7 nM.
Take `CCS(=O)(=O)Nc1cccc(Oc2c(C(N)=O)c(Nc3ccc(I)cc3F)n(C)c(=O)c2Cl)c1C` [Example 5, 4-(3-(ethylsulfonamido)-2-methylphenoxy)-2-((2-fluoro-4-iodophenyl)amino)-1-methyl-5-chloro-6-oxo-1,6-dihydropyridine-3-carboxamide]: the IC50 in experiment [1] was found to be 4 nM.
In the case of `COc1cccc(Oc2cc(=O)n(C)c(Nc3ccc(I)cc3F)c2C(N)=O)c1C` [Example 16, 4-(3-methoxy-2-methylphenoxy)-2-((2-fluoro-4-iodophenyl)amino)-1-methyl-6-oxo-1,6-dihydropyridine-3-carboxamide], the IC50 came out at 9.5 nM in experiment [1] and 11.5 nM in experiment [2].
The matching figures for `Cc1ccccc1Oc1cc(=O)n(C)c(Nc2ccc(I)cc2F)c1C(N)=O` [Example 23, 4-(2-methylphenoxy)-2-((2-fluoro-4-iodophenyl)amino)-1-methyl-6-oxo-1,6-dihydropyridine-3-carboxamide]: 4.2 nM and 0.4 nM.
For `Cc1cc(Oc2cc(=O)n(C)c(Nc3ccc(I)cc3F)c2C(N)=O)ccn1` [Example 32, 2-((2-fluoro-4-iodophenyl)amino)-1-methyl-4-((2-methylpyridin-4-yl)oxy)-6-oxo-1,6-dihydropyridine-3-carboxamide], the IC50 came to 5.5 nM in experiment [1] and 4 nM in experiment [2].
In the same order, the values of `Cc1c(Cl)cccc1Oc1cc(=O)n(C)c(Nc2ccc(I)cc2F)c1C(N)=O` [Example 14, 4-(3-chloro-2-methylphenoxy)-2-((2-fluoro-4-iodophenyl)amino)-1-methyl-6-oxo-1,6-dihydropyridine-3-carboxamide] are 6.2 nM and 4.2 nM.
Consider `CC(=O)c1cccc(Oc2cc(=O)n(C)c(Nc3ccc(I)cc3F)c2C(N)=O)c1C` [Example 13, 4-(3-acetyl-2-methylphenoxy)-2-((2-fluoro-4-iodophenyl)amino)-1-methyl-6-oxo-1,6-dihydropyridine-3-carboxamide], for which the IC50 in experiment [1] was 5.5 nM; in experiment [2] it was 2.9 nM.
In the same order, the values of `Cc1c(Oc2cc(=O)n(C)c(Nc3ccc(I)cc3F)c2C(N)=O)cccc1O[C@@H]1CCOC1` [Example 12, (R)-2-((2-fluoro-4-iodophenyl)amino)-1-methyl-4-(2-methyl-3-((tetrahydrofuran-3-yl)oxy)phenoxy)-6-oxo-1,6-dihydropyridine-3-carboxamide] are 5.1 nM and 0.7 nM.
For `Cc1ccncc1Oc1cc(=O)n(C)c(Nc2ccc(I)cc2F)c1C(N)=O` [Example 33, 2-((2-fluoro-4-iodophenyl)amino)-1-methyl-4-((4-methylpyridin-3-yl)oxy)-6-oxo-1,6-dihydropyridine-3-carboxamide], the IC50 in experiment [1] was determined as 7.3 nM.
In the case of `Cc1c(F)cccc1Oc1cc(=O)n(C)c(Nc2ccc(I)cc2F)c1C(=O)NC[C@H](O)CO` [Example 28, (S)-N-(2,3-dihydroxypropyl)-4-(3-fluoro-2-methylphenoxy)-2-((2-fluoro-4-iodophenyl)amino)-1-methyl-6-oxo-1,6-dihydropyridine-3-carboxamide], the 50% inhibitory concentration (IC50) in experiment [1] is 26 nM.

Source of the values: patent US10064848B2, “Pyridic ketone derivatives, method of preparing same, and pharmaceutical application thereof” (Shanghai Hengrui Pharmaceutical Co., Ltd., priority 2013, dated 2018).
